Laboratory results published in ChEMBL document CHEMBL1126004, “Synthesis and resolution of 7-fluorotryptophans” (Bioorg Med Chem Lett, 1991).

Test: Compound was evaluated for relative ratio (Kcat/Km) between catalyst constant (Kcat) and Michaelis-Menten constant (Km) in a reaction with tryptophan indole-lyase (tryptophanase) from Escherichia coli

| k cat/Km [%] | SMILES |
| --- | --- |
| 6 | N[C@@H](Cc1c[nH]c2c(F)ccc(F)c12)C(=O)O |
| 14 | N[C@@H](Cc1c[nH]c2c(F)cccc12)C(=O)O |
| 100 | N[C@@H](Cc1c[nH]c2ccccc12)C(=O)O |
| 30 | N[C@@H](Cc1c[nH]c2c(F)cc(F)cc12)C(=O)O |
